From US7605272B2, “IGF-1R inhibitor” (Kyowa Hakko Kirin Co., Ltd., priority 2005, dated 2009) come the findings set out here.

One test has as its system NCI-H929. The test is described as follows: Cytostatic activity on human multiple myeloma cell line NCI-H929 (WST-1). The format is cell-based. Particulars: 72 hours; for inhibition at 10 µM: read-out: cytostatic rate (%) H929 (10 μmol/L). The procedure:
(§1) The cytostatic rates of a test compound on human multiple myeloma cell lines NCI-H929 and KMS-11, were determined in the following manner.
(§2) For culturing NCI-H929, Roswell Park Memorial Institute's Medium (RPMI) 1640 (Gibco, Catalog No. 11875-093) containing 15% fetal bovine serum (Gibco, Catalog No. 10099-141), 1 mmol/L sodium pyruvate (Gibco, Catalog No. 11360-070), 10 mmol/L HEPES (Gibco, Catalog No. 15630-80), 4.5 g/L glucose (Sigma, Catalog No. G8769), 0.05 mmol/L 2-mercaptethanol (Nacalai Tesque, Catalog No. 21418-42) and penicillin/streptomycin (1:1) (Gibco, Catalog No. 15140-122) was used. For culturing KMS-11 cell, RPMI 1640 medium containing 10% fetal bovine serum and penicillin/streptomycin (1:1) was used. Each 80 μL of the NCI-H929 cell having a concentration of 1×10^5 cells/mL (or the KMS-11 cell having a concentration of 7.5×10^4 cells/mL) was inoculated to wells of a TC MICROWELL 96U plate (Nalge Nunc International, Catalog No. 163320) and was cultured in a 5% carbon dioxide gas incubator at 37° C. for 24 hours. Each 20 μL of a solution of the test compound in dimethyl sulfoxide (DMSO) which was prepared to make the final concentration to 1 μmol/L or 10 μmol/L, was added to each well. Each 20 μL of DMSO was added to the control well and the blank well to a final concentration of 0.1%. After adding the test compound, the cells were incubated in a 5% carbon dioxide gas incubator at 37° C. for 72 hours except for the blank well. After adding 20 μL of WST-1 reagent {4-[3-(4-iodophenyl)-2-(4-nitrophenyl)-2H-5-tetrazolio]-1,3-benzene disulfonate sodium salt} (Roche Diagnostics K.K., Catalog No. 1644807), which was diluted to 50% by RPMI medium to each well, the cells were further incubated at 37° C. for 2 hours. Then, the absorbances at 450 nm (reference wavelength: 690 nm) were measured with a microplate spectrophotometer SPECTRA max 340PC (Molecular Devices Corporation). The relative growth (%) of a well to which the test compound had been added and cultured for 72 hours was determined while setting the absorbance of a well to which not the test compound but DMSO alone had been added and cultured for 72 hours (control) as 100% and that of a well where the drugs are added (blank) as 0%. The cytostatic rate (%) of the test compound was determined by subtracting the calculated relative growth from 100.

The subject of a further test is KMS-11. The test is described as follows: Cytostatic activity on human multiple myeloma cell line KMS-11 (WST-1). Particulars: 72 hours; for inhibition at 10 µM: read-out: cytostatic rate (%) KMS-11 (10 μmol/L). Type of test: cell-based. The procedure:
as §1, §2
(Formazan colour is commonly taken as a measure of viable cells.)

For the next test, the target named is T1, IGF-1R (Homo sapiens, UniProt P08069).
T1 construct: purchased Upstate Co. 14-465
As to the kind of experiment: IGF-1R inhibitory activity (kinase reaction, time-resolved fluoroimmunoassay). The settings on record: test compound 10 μmol/L. The format is biochemical. The procedure, abridged: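 Compounds were tested at a single 10 μmol/L concentration. Each was incubated with recombinant IGF-1R (200 μg/L), 10 mmol/L ATP, MgCl2/MnCl2 and Na3VO4 (pH 7.5) on immobilized poly(Glu-Tyr) peptide for 30 min at 24° C. Eu-anti-phosphotyrosine time-resolved fluorescence (340/615 nm) gave relative activity against no-compound and no-enzyme wells, reported as % inhibition.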

[1] abbreviates: IGF-1R active recombinant enzyme.
The mark [2] stands for this setting: Homo sapiens, NCI-H929, 72 h, 10 μmol/L.
Setting [3] is: Homo sapiens, KMS-11, 72 h, 10 μmol/L.

Where two headings read alike, the source gives them in different places.

T1 sequence (P08069 959-1367 limits assumed): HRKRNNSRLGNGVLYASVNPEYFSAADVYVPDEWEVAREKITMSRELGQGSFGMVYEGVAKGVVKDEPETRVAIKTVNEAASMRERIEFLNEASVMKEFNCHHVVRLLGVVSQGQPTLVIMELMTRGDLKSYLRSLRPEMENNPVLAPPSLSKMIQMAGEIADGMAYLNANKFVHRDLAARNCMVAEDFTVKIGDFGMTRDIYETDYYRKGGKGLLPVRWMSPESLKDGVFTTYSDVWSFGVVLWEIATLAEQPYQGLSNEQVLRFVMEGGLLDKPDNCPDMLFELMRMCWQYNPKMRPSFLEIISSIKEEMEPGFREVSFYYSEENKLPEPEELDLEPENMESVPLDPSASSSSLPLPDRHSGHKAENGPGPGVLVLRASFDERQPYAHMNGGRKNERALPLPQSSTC

On to `CN[C@@H]1CN(CCCOc2ccc(/C=C/c3n[nH]c4ccccc34)c(NC(=O)c3sccc3C)c2OC)C[C@H]1OC` (relative stereo) [Compound 348, (E)-N-(6-[2-(1H-indazol-3-yl)vinyl]-2-methoxy-3-{3-[(3R*,4R*)-3-methoxy-4-(methylamino)pyrrolidin-1-yl]propoxy}phenyl)-3-methylthiophene-2-carboxamide], for which the inhibition at 1 µM in the test on NCI-H929 (Homo sapiens, NCI-H929, 72 h, 1 μmol/L, read-out: cytostatic rate (%) H929 (1 μmol/L)) was 116%; in the test on KMS-11 (Homo sapiens, KMS-11, 72 h, 1 μmol/L, read-out: cytostatic rate (%) KMS-11 (1 μmol/L)) it was 117%. For the same compound, at IGF-1R (setting [1]), the inhibition at 10 µM worked out at 109%.
On to `O=[N+]([O-])c1ccccc1/C=C/c1n[nH]c2ccccc12` [Compound 1, (E)-3-[2-(2-nitrophenyl)vinyl]-1H-indazole], for which the inhibition at 10 µM in the test with NCI-H929 (setting [2]) turned out to be 105%; in the test on KMS-11 (setting [3]) it was 80.2%; on IGF-1R (setting [1]), 71.2%.
The like results for `O=C(Nc1ccccc1/C=C/c1n[nH]c2ccccc12)c1ccc(F)cc1` [Compound 3, (E)-4-fluoro-N-{2-[2-(1H-indazol-3-yl)vinyl]phenyl}benzamide] were, in that order, 115%, 118% and 99.1%.
The like results for `COc1ccc(C(=O)Nc2ccccc2/C=C/c2n[nH]c3ccccc23)cc1` [Compound 4, (E)-N-{2-[2-(1H-indazol-3-yl)vinyl]phenyl}-4-methoxybenzamide] were, in that order, 114%, 130% and 98.5%.
The like results for `Cc1ccc(C(=O)Nc2ccccc2/C=C/c2n[nH]c3ccccc23)cc1` [Compound 5, (E)-N-{2-[2-(1H-indazol-3-yl)vinyl]phenyl}-4-methylbenzamide] were, in that order, 116%, 129% and 99.1%.
With `O=C(Nc1ccccc1/C=C/c1n[nH]c2ccccc12)c1cccnc1` [Compound 6, (E)-N-{2-[2-(1H-indazol-3-yl)vinyl]phenyl}nicotinamide], the values for the inhibition at 10 µM in the test with NCI-H929 (setting [2]), with KMS-11 (setting [3]) and on IGF-1R (setting [1]) were 115%, 120% and 97.8%, respectively.
For the compound `O=C(Nc1ccccc1/C=C/c1n[nH]c2ccccc12)c1cccc(F)c1` [Compound 7, (E)-3-fluoro-N-{2-[2-(1H-indazol-3-yl)vinyl]phenyl}benzamide], the inhibition at 10 µM in the test with NCI-H929 (setting [2]) was 115%; in the test on KMS-11 (setting [3]), 121%; at IGF-1R (setting [1]), 98.6%.
The like results for `O=C(Nc1ccccc1/C=C/c1n[nH]c2ccccc12)c1ccccc1F` [Compound 8, (E)-2-fluoro-N-{2-[2-(1H-indazol-3-yl)vinyl]phenyl}benzamide] were, in that order, 118%, 126% and 99.5%.
The like results for `CC(=O)Nc1ccccc1/C=C/c1n[nH]c2ccccc12` [Compound 9, (E)-N-{2-[2-(1H-indazol-3-yl)vinyl]phenyl}acetamide] were, in that order, 59%, 99.8% and 74.3%.
The like results for `O=C(Nc1ccccc1/C=C/c1n[nH]c2ccccc12)c1ccncc1` [Compound 10, (E)-N-{2-[2-(1H-indazol-3-yl)vinyl]phenyl}isonicotinamide] were, in that order, 113%, 102% and 99.1%.
For `O=C(Nc1ccccc1/C=C/c1n[nH]c2ccccc12)c1ccco1` [Compound 11, (E)-N-{2-[2-(1H-indazol-3-yl)vinyl]phenyl}furan-2-carboxamide], the inhibition at 10 µM with NCI-H929 (setting [2]) was found to be 116%; in the test on KMS-11 (setting [3]), 120%; at IGF-1R (setting [1]), 99.4%.
The like results for `O=C(Nc1ccccc1/C=C/c1n[nH]c2ccccc12)c1ccccn1` [Compound 12, (E)-N-{2-[2-(1H-indazol-3-yl)vinyl]phenyl}pyridine-2-carboxamide] were, in that order, 118%, 120% and 96.1%.
As to `C(=C\c1n[nH]c2ccccc12)/c1ccccc1OCc1ccccc1` [Compound 13, (E)-3-[2-(2-benzyloxyphenyl)vinyl]-1H-indazole], the inhibition at 10 µM was determined as 116% with NCI-H929 (setting [2]), 105% with KMS-11 (setting [3]) and 96.9% at IGF-1R (setting [1]).
The like results for `O=C(Nc1ccccc1/C=C/c1n[nH]c2ccccc12)c1cccs1` [Compound 14, (E)-N-{2-[2-(1H-indazol-3-yl)vinyl]phenyl}thiophene-2-carboxamide] were, in that order, 114%, 110% and 96.5%.
As to `O=C(Cc1ccccc1)Nc1ccccc1/C=C/c1n[nH]c2ccccc12` [Compound 15, (E)-N-{2-[2-(1H-indazol-3-yl)vinyl]phenyl}-2-phenylacetamide], the values for the inhibition at 10 µM in the test with NCI-H929 (setting [2]), in the test on KMS-11 (setting [3]) and at IGF-1R (setting [1]) were 93.6%, 95.1% and 55.4%, respectively.
Take `O=S(=O)(Nc1ccccc1/C=C/c1n[nH]c2ccccc12)c1ccccc1` [Compound 16, (E)-N-{2-[2-(1H-indazol-3-yl)vinyl]phenyl}benzenesulfonamide]: the inhibition at 10 µM in the test on NCI-H929 (setting [2]) amounted to 64.7%; in the test on KMS-11 (setting [3]) it was 85.2%; at IGF-1R (setting [1]), 59.2%.
The like results for `CN(C)c1ccc(C(=O)Nc2ccccc2/C=C/c2n[nH]c3ccccc23)cc1` [Compound 17, (E)-4-dimethylamino-N-{2-[2-(1H-indazol-3-yl)vinyl]phenyl}benzamide] were, in that order, 115%, 127% and 98.3%.
For the compound `CC(C)C(=O)Nc1ccccc1/C=C/c1n[nH]c2ccccc12` [Compound 18, (E)-N-{2-[2-(1H-indazol-3-yl)vinyl]phenyl}isobutylamide], the “cytostatic rate (%) H929 (10 μmol/L)” value in the test on NCI-H929 (10 μmol/L) is 112.7%. For the same compound, the “cytostatic rate (%) KMS-11 (10 μmol/L)” value with KMS-11 (10 μmol/L) was 124.1%. The “inhibitory activity (%) at 10 μmol/L” value at IGF-1R (setting [1]) is reported as 96.4%.
Regarding `COc1cccc(C(=O)Nc2ccccc2/C=C/c2n[nH]c3ccccc23)c1` [Compound 19, (E)-N-{2-[2-(1H-indazol-3-yl)vinyl]phenyl}-3-methoxybenzamide], the inhibition at 10 µM in the test on NCI-H929 (setting [2]) was 132%; in the test with KMS-11 (setting [3]), 110%; on IGF-1R (setting [1]), 95.3%.
On to `CCN(CC)C(=O)c1ccc(/C=C/c2n[nH]c3ccccc23)c(NC(=O)c2sccc2C)c1` [Compound 101, (E)-N-{5-(N,N-diethylcarbamoyl)-2-[2-(1H-indazol-3-yl)vinyl]phenyl}-3-methylthiophene-2-carboxamide], for which the inhibition at 10 µM in the test with KMS-11 (Homo sapiens, KMS-11, 10 μmol/L) was determined as 117%; against IGF-1R, 100%.
Turning to `Nc1ccc(C(=O)Nc2ccc(OCCN3CCOCC3)cc2/C=C/c2n[nH]c3ccccc23)s1` [Compound 106, (E)-5-amino-N-{2-[2-(1H-indazol-3-yl)vinyl]-4-(2-morpholinoethoxy)phenyl}thiophene-2-carboxamide], the inhibition at 10 µM with NCI-H929 (setting [2]) came to 112%; with KMS-11 (setting [3]), 115%.
`CCCNC(=O)c1ccc(/C=C/c2n[nH]c3ccccc23)c(NC(=O)c2sccc2C)c1` [Compound 112, (E)-N-{2-[2-(1H-indazol-3-yl)vinyl]-5-(N-propylcarbamoyl)-phenyl}-3-methylthiophene-2-carboxamide]: the values for the inhibition at 10 µM in the test on KMS-11 (setting [3]) and at IGF-1R were 126% and 98.5%, respectively.
The like results for `CCN(C)C(=O)c1ccc(/C=C/c2n[nH]c3ccccc23)c(NC(=O)c2sccc2C)c1` [Compound 113, (E)-N-{5-(N-ethyl-N-methylcarbamoyl)-2-[2-(1H-indazol-3-yl)vinyl]phenyl}-3-methylthiophene-2-carboxamide] were, in that order, 121% and 98.6%.
